Measurements taken from a melting point compilation (Tetko et al.; mined from patent text by program, amines drawn as free bases though some values may be those of a salt).

Row | melting point [°C] | Compound
1 | 125 to 127 | O=C(NC(Cc1ccccc1)C(=O)O)c1cc2cc(F)ccc2[nH]1 (stereo unspecified)
2 | 176 to 179 | CCCCOc1cc(C=CC(=O)O)n(Cc2ccc(Cl)cc2Cl)n1
3 | 131 to 132 | C=Cc1cc(NC(=O)N2CCN(c3cc(C)cc(C)c3)CC2)c(OC)nc1C
4 | 146 to 147 | COCCOc1cccc2c1C(=O)c1ccccc1C2=O
5 | 152 to 155 | COCC(C)OC(=O)C(=O)Nc1nc(-c2ccccc2)cs1 (stereo unspecified)
6 | 108 to 111 | CC1(c2ccc(N)c(C(=O)c3ccccc3)c2)OCCO1
7 | 95 | CCOCc1cc2c(N)cccc2cn1
8 | 136 to 138 | CC(Oc1ccc(Cl)c(Cl)c1)c1nnc(N)s1 (stereo unspecified)
9 | 215 | CCOc1ccc(-c2cncn2-c2ccc(S(=O)(=O)NC(C)(C)C)cc2)cc1
10 | 138 to 145 | COc1cc(NC(=O)c2cccc(CCl)c2)cc(OC)c1OC
11 | 116 to 118 | Cc1c(SCCCSc2ccncc2)ccnc1CSc1ccncc1
12 | 232 to 235 | Cn1nnc(-c2ccc(CNc3n[nH]c4ncnc(Nc5cccc(Cl)c5)c34)cc2)n1
13 | 134 to 137 | CC(COc1ccccc1)C1CC=C2C3=C(CCC21C)C1(C)CCC(O)C(C)(C)C1CC3 (stereo unspecified)
14 | 200 | O=C(O)C(ON=c1c2nccc3cccc(c32)n2cccc12)c1ccccc1 (stereo unspecified)
15 | 175 to 176 | O=c1c(CCCc2cncnc2)cc2cccnc2n1-c1cccc([N+](=O)[O-])c1
16 | 218 to 220 | S=c1n(CCc2ccc(-c3nnn[nH]3)cc2)ccn1C1CCc2ccccc2C1 (stereo unspecified)
17 | 53 to 55 | COc1c(C=O)cccc1Oc1ccccc1C
18 | 144 | COC(=O)n1cc(Cl)c(-c2cc(Cl)cc(Cl)c2)n1
19 | 136 to 137 | COc1ccc2c3cc(C)ccc3n(CC3CCCCC3)c2c1
20 | 106 to 110 | Clc1ccc(C(=Cc2ccccc2Cl)Cn2cncn2)cc1
21 | 195 to 201 | CSc1ncc2cc(Oc3ccc(F)cc3F)c(NC(=O)NC(C)(C)C)nc2n1
22 | 235 | Nn1ncc2c1-c1cc3ccccc3nc1CC2
23 | 42 to 43 | Cc1cc(CCCCCOc2c(Cl)cc(-c3noc(C(F)(F)F)n3)cc2Cl)on1
24 | 92 to 105 | C=CCNc1cc(C)nc2c(-c3ccccc3)n[nH]c12
25 | 260 to 268 | Nc1c(-c2ccc(-c3cccnc3)cc2)nc2ccc(F)cc2c1C(=O)O
26 | 216 to 218 | CNC(=S)NCCn1c(=O)ccc2c(C)cc(C)nc21
27 | 112 to 115 | Cc1ccc(Cc2cnc(NCCNc3ncc(Cl)cc3C)[nH]c2=O)cn1
28 | > 250 | O=c1[nH]c2cc(C(F)(F)F)ccc2n(CCc2ncc[nH]2)c1=O

Row | melting point [°C] | Compound
29 | 158 to 163 | O=C(Nc1ccc(-n2nc(C3CC3)cc2C2CC2)cc1)c1c(F)cccc1F
30 | 160 to 162 | CCOC(=O)N1CCn2c(nc(-c3ccncn3)cc2=O)C(CC)C1 (racemic)
31 | 163 to 164 | CCCCn1nc2c(N)nc3ccccc3c2c1CC(C)(C)C
32 | 138 to 139 | COC(=O)c1cc(-c2ccc(F)c(C)c2)nn(CC=Cc2ccc(Cl)cc2)c1=O
33 | 134 to 135 | Cc1nc2nc(SCc3ccccc3)nn2c(C)c1C
34 | 83 to 93 | COc1cc(OC)nc(-c2ccc(-c3ccccc3S(=O)(=O)Nc3onc(C)c3C)cc2)n1
35 | 263 to 265 | Cc1c(C)c2c(c(C)c1NC(=O)c1ccccc1)CC(C)(C)O2
36 | 164 to 167 | CCCc1c(OCCCOc2cccc3ccccc23)ccc2c1OC(CCC(=O)O)(CCC(=O)O)CC2=O
37 | 79 to 80 | COCCOc1ncc(Br)nc1-c1ccc(Cl)cc1
38 | 174 to 176 | COC(=O)c1cccc2c(=O)c3cccc(I)c3[nH]c12
39 | 225 to 226 | CN1CCN(C2=Nc3cc(Cl)ccc3Nc3ccsc32)CC1
40 | 243 | Cc1cc(-c2cc(C(F)(F)F)n3ncc(C(=O)O)c3n2)ccc1Cl
41 | 147 to 148 | CC(C)(CNc1ccc(C2=NNC(=O)CC2)cc1)NCC(O)COc1ccccc1 (stereo unspecified)
42 | 60 to 61 | c1ccc(NCC2CCNCC2)cc1
43 | 155 to 156 | O=c1cc(-c2ccoc2)c2ccc(CBr)cc2o1
44 | > 122 | COCc1nc2cc3c(cc2c(=O)[nH]1)C(Nc1ccc(C(=O)OC(C)(C)C)cc1)CC3 (racemic)
45 | 175 | Cc1ccc(C(C)(C)C)c(SC2=C(O)CC(CCc3ccccc3)(c3ccc(OCCN4CCNCC4)cc3)OC2=O)c1 (stereo unspecified)
46 | 249 to 250 | CC(=O)Nc1cccc(-c2cnc3[nH]cc(C(=O)C(C)(C)C)c3n2)c1
47 | 205 to 206 | O=C1NC(=O)C(Nc2ccc(Cl)c3ccccc23)S1 (stereo unspecified)
48 | 159 to 162 | O=C(CCCCl)Nc1nnc(-c2ccccc2)s1
49 | 153 | CC(COc1ccc2ccc(Oc3c(F)cc(C(F)(F)F)cc3Cl)cc2c1)=NO
50 | 152 to 156 | Nc1nc(CN2CCCN(C(c3ccccc3)c3ccccc3)CC2)cs1
51 | 252 to 253 | CCN(CC)c1ccc2cc(-c3nc(C)c(C(=O)OC)s3)c(=O)oc2c1
52 | 188 to 189 | CC(=O)c1cc(C(F)(F)F)nn1-c1ccc(NC(=O)c2cccnc2F)cc1
53 | 111 to 114 | O=c1oc(-c2c(F)cccc2F)nn1-c1ccccc1Br
54 | 111 to 113 | CN(CCCC(=O)O)c1ccc(C(=O)c2ccccc2)cc1
55 | 228 to 230 | COC(=O)c1ccc2c(c1)c(Cc1ccc(C(=O)O)cc1OC)cn2C

The remaining lines, values behind:

Row | Compound | melting point [°C]
56 | CCCSc1cscc1S(=O)(=O)NC(C)(C)C | 61 to 63
57 | O=c1[nH]cnc2nn(C3CCCCC3)cc12 | 287 to 289
58 | CCOC(=O)c1c[nH]c2nc(N3CCN(C)CC3)ncc2c1=O | 266 to 268
59 | CC1(C)CCS(=O)(=O)N1 | 72
60 | CS(=O)(=O)c1nc(Cl)c(-c2c(F)cc(F)cc2F)c(N2CCCO2)n1 | 210 to 219
61 | O=C1CCCc2ccc([N+](=O)[O-])cc21 | 104 to 105
62 | O=C(O)Cc1coc2cc(OCc3ccc(OCc4ccc(C(F)(F)F)cc4)cc3)ccc12 | 161 to 163
63 | CCN(CC)C(=O)Nc1ccc(S(=O)(=O)n2c(=O)n(C3CCCCC3)c3cc(Cl)ccc32)c(OC)c1 | 250
64 | O=C(O)c1cc2c(cc1[N+](=O)[O-])OCO2 | 160 to 163
65 | O=C(NCc1ccc(O)cc1)C12CC3CC(CC(C3)C1)C2 | 196 to 198
66 | COc1ccc(C2=CCN(Cc3n[nH]c4c(F)cccc34)CC2)cc1 | 183 to 185
67 | COc1cc(OC)c(C2=NC(NC(=O)Nc3cccc(C)c3)C(=O)N(C)c3ccccc32)c(OC)c1 (stereo unspecified) | 240
68 | CN1C(=O)C2(CCN(Cc3ccccc3)CC2)N=C(c2ccccc2)c2cc(Cl)ccc21 | 169 to 170
69 | CNC(=O)N(c1ccc(OC(F)(F)F)cc1)c1nc(OCC(F)(F)F)cc(OCC(F)(F)F)n1 | 123 to 125
70 | CCNC(=O)c1c([Si](C)(C)C)ccc(OC)c1Cl | 136 to 137
71 | CCCCCC(=O)C=Cc1ccc(O)c(O)c1 | 130 to 131
72 | CC(C)(C)C(C)(C)Nc1nc(Cl)nc(NC(C)(C)C(C)(C)C)n1 | 129 to 131
73 | CC(=O)Nc1ccc(C(=O)N2CCN(CCc3ccc(Cl)cc3)CC2)cc1 | 147 to 149
74 | CCCCCCCCCCn1c(=O)n(C2OC(CO)C(O)C2O)c2nc(N)[nH]c(=O)c21 (stereo unspecified) | 174 to 176
75 | O=CCOc1ccc(Cl)cc1 | 122 to 128
76 | O=[N+]([O-])c1ccc(N2CCC2)nc1 | 132 to 134
77 | Cc1cc([N+](=O)[O-])c(C)nc1OC(F)F | 48 to 49
78 | Cc1nnc(NCCNC2CN3CCC2CC3)c2cc3ccccn3c12 (stereo unspecified) | 205 to 208

Row | Compound | melting point [°C]
79 | CCOC(=O)c1cccc(OP(=O)(CCN2CCCNc3c2c(=O)c3=O)Oc2cccc(C(=O)OCC)c2)c1 | 116 to 117
80 | CCOC(=O)CCCc1ccc(CCl)cc1 | 152 to 155
81 | CS(=O)(=O)c1ccc(-c2oc(C(F)F)cc(=O)c2-c2ccc(Cl)cc2)cc1 | 168 to 170
82 | O=Cc1cc(Br)cnc1N1CCC(CO)C1 (stereo unspecified) | 84 to 85.5
83 | Cc1ccc(SC(C#N)c2ccc(C(=O)c3cccs3)cc2)cc1 (stereo unspecified) | 124 to 126
84 | C=C(C)C(=O)NCC(=O)Nc1cc(Cl)c(C)c(Cl)c1O | 217 to 218
85 | CC(C)=CC(=O)N[C@H]1CC[C@H](CCN2CCN(c3nccc4c3CCO4)CC2)CC1 | 164
86 | CC(=O)c1nn(CCOS(C)(=O)=O)cc1C | 108 to 109
87 | O=C(O)CCCNC(=O)CCCNC(=O)c1cc(Br)no1 | 157 to 158
88 | CC(C)C(=O)Nc1ccc(I)c(C(F)(F)F)c1 | 143 to 145
89 | CCC(C)OC(=O)CNC(=O)[C@@H](Cc1ccccc1)CN1CC[C@@](C)(c2cccc(O)c2)[C@@H](C)C1 (stereo partly specified) | 94
90 | Nc1c(Oc2ccc(F)c(C(F)(F)F)c2)nc(Br)nc1Oc1ccc(F)c(C(F)(F)F)c1 | 184 to 186
91 | CCCCCCCCc1ccc(N(c2ccc(CCCCCCCC)cc2)C2(c3ccc(N(CC)CC)cc3C)OC(=O)c3nccnc32)cc1 (stereo unspecified) | 180 to 187
92 | c1ccc(C(=C(c2ccccc2)P(C2CCCCC2)C2CCCCC2)c2ccccc2)cc1 | 121 to 123
93 | CCCCCCCCCCCCc1ccc(S(=O)(=O)Nc2nnc(CC(=O)O)s2)cc1 | 194 to 195
94 | O=C1CCCN1CC1CCN(c2ccnc(C(F)(F)F)n2)CC1 | 118 to 120
95 | Cn1cc(CC2CCN(CCN3c4cccc5cccc(c45)S3(=O)=O)CC2)c2cc(F)ccc21 | 150 to 152
96 | COC1OC(CO)C(O)C(OC(C)=O)C1Cl (stereo unspecified) | 105 to 106
97 | CC(C#N)=C1CCN(c2ccc(N3C[C@H](CO)OC3=O)cc2F)CC1 | 100 to 102
98 | CCc1c(-c2ccc(OCc3ccccc3)cc2)c2c(C(=O)OC)c(C(=O)OC)c3c(OCc4ccccc4)ccc1n32 | 115 to 120
99 | CCCNC1CCc2nc(N)sc2C1 (stereo unspecified) | 145 to 150
100 | Cc1ccc2c(c1)C(C(Cl)(Cl)Cl)OC(C(Cl)(Cl)Cl)O2 (stereo unspecified) | 134 to 135
101 | O=C(NCCO)c1c([N+](=O)[O-])ccc(N(CCBr)CCBr)c1[N+](=O)[O-] | 94 to 97
